Measurements: patent US5942501A, “Cyclodextrin derivative complex” (priority 1996, dated 1999)

Key:
[1] = Solubility in water of salicylic acid, cyclodextrins and cyclodextrin inclusion complexes; type: physicochemical; conditions: complexed with cyclodextrin
[2] = cited from earlier work

Row | SMILES | solubility in complexed form (in words) [1] | solubility of salicylic acid in water ([2]; ambient temperatures, uncomplexed) | solubility of S.A. in water or mixed aqueous solvent (uncomplexed) ([2]; water or mixed aqueous solvent, starting value before complexation)
1 | OCCOc1ccccc1 [phenoxyethanol] | more soluble in complexed form |  | 
2 | O=C(O)c1ccccc1O [salicylic acid] |  | about 0.3% | about 0.3%
